The structures appear in SMILES notation.

The first assay deals with T1, Acetylcholinesterase (Homo sapiens, UniProt P22303). The assay can be described thus: Inhibition of AChE by Ellman's assay.
T1 sequence (P22303 whole entry): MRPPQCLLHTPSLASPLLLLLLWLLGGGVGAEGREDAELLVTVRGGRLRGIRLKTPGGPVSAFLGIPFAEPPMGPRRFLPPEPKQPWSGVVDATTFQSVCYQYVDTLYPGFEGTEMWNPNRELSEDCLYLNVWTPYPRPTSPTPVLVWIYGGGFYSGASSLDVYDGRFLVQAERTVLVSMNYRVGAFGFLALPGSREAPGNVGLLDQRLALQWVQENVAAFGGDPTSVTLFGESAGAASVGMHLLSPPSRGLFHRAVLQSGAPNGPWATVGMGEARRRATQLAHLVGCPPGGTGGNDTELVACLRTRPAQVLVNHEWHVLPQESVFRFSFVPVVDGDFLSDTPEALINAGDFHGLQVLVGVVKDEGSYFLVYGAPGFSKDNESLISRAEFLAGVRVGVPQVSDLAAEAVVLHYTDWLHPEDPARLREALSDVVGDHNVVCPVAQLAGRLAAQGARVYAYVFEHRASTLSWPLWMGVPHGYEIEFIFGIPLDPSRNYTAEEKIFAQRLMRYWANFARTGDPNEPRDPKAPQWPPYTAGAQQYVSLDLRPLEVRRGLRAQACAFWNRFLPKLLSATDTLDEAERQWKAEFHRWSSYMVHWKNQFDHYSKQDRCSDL
As usually defined, the Ki is a measure of affinity in units of concentration, obtained from inhibition or displacement. A low value points to tighter binding. Take `CC(C)(C)[Si](C)(C)O[C@H]1C=C2CCN3Cc4cc5c(cc4[C@H]([C@@H]1OC(=O)c1ccccc1)[C@@H]23)OCO5`: the Ki is 390 nM.

`O=C(O[C@H]1[C@H]2c3cc4c(cc3CN3CCC(=C[C@@H]1O)[C@H]23)OCO4)c1ccccc1`: the Ki is 540 nM.

For `CC(=O)O[C@H]1C=C2CCN3Cc4cc5c(cc4[C@H]([C@@H]1OC(=O)c1ccccc1)[C@@H]23)OCO5`, the affinity corresponds to a Ki of 970 nM.

`CC(=O)O[C@H]1[C@H]2c3cc4c(cc3CN3CCC(=C[C@@H]1O)[C@H]23)OCO4` came in with an inhibition constant Ki of 430 nM.

Regarding `CC(C)(C)[Si](C)(C)O[C@H]1C=C2CCN3Cc4cc5c(cc4[C@H]([C@@H]1O)[C@@H]23)OCO5`, the Ki came out at 860 nM.

Take `CC(=O)O[C@H]1[C@H]2c3cc4c(cc3CN3CCC(=C[C@@H]1O[Si](C)(C)C(C)(C)C)[C@H]23)OCO4`: affinity was put at a Ki of 340 nM.

The next assay addresses T1, Acetylcholinesterase. The assay can be described thus: Inhibition of AChE at 10 uM by Ellman's assay. For orientation: Ellman's reagent forms a yellow product with free thiols.
As to `CC(=O)O[C@H]1[C@H]2c3cc4c(cc3CN3CCC(=C[C@@H]1OC(C)=O)[C@H]23)OCO4`, the inhibition constant (Ki) entry is “Not Active”.

On to `CO[C@H]1C=C[C@@]23c4cc5c(cc4CN(C[C@@H]2O)[C@H]3C1)OCO5`, for which the Ki result is recorded as “Not Active”.

As to `O[C@H]1C=C[C@@]23CCN(Cc4cc5c(cc42)OCO5)[C@@H]3C1` [CRININE], the Ki result is recorded as “Not Active”.

Turning to `COc1cc2c(cc1OC)[C@H]1[C@H]3C(=CC[C@H]1OC2=O)CCN3C` [HOMOLYCORINE], the Ki entry is “Not Active”.

Regarding `O[C@H]1[C@H]2c3cc4c(cc3CN3CCC(=C[C@@H]1O)[C@H]23)OCO4` [LYCORINE], the Ki entry was “Not Active”.

In the case of `CO[C@H]1C=C2[C@H]3CN(Cc4cc5c(cc43)OCO5)[C@H]2C[C@@H]1O` [MONTANINE], the Ki result was “Not Active”.

For `COc1cc2c(cc1O)[C@@H]1[C@H](O)[C@@H](O)C=C3CCN(C2)[C@H]31` [PSEUDOLYCORINE], the Ki entry is “Not Active”.

For the compound `CO[C@@H]1C=C[C@@]23c4cc5c(cc4CO[C@]2(O)CN(C)[C@H]3C1)OCO5` [TAZETTINE], the Ki entry is reported as “Not Active”.
